Calls of active or inactive are those of the source. The rule behind the calls is not given here.
How the values were obtained:
Sclerostin [1] = molecular target: T1, Sclerostin (Homo sapiens, UniProt Q9BQB4); test: Binding affinity to SOST (unknown origin) by SPR analysis
T1 sequence (Q9BQB4 whole entry): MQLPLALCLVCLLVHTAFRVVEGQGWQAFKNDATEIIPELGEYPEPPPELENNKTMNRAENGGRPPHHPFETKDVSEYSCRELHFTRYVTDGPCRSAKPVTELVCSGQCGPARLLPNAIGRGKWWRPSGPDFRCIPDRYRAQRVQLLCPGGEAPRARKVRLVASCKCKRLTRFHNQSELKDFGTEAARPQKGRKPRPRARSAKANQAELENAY

Sclerostin [2] = molecular target: T1, Sclerostin; test: Binding affinity to SOST loop2 (unknown origin) by SPR analysis
[3] = AUC in sc dosed Sprague-Dawley rat; type: ADME, organism-based; settings: in vivo
Albumin = Albumin (Homo sapiens, UniProt P02768); test: Binding affinity to human serum albumin; type: ADME; settings: isolated protein
Albumin, sequence (P02768 whole entry): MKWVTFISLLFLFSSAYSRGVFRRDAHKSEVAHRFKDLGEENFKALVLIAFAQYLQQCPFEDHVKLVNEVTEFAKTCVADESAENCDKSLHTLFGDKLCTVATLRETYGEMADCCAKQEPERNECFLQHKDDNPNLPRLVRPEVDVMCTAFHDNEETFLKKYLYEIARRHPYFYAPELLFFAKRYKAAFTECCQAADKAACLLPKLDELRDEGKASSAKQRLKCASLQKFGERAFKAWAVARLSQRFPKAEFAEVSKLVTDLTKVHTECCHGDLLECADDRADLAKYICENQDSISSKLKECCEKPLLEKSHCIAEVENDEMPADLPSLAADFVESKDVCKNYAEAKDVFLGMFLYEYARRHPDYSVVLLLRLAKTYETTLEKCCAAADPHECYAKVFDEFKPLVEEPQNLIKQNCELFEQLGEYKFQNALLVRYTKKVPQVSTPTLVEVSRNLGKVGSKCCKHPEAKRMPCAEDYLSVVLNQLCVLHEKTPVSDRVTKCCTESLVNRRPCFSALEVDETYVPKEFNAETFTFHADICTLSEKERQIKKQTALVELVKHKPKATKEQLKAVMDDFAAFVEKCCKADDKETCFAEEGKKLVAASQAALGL

Homo sapiens = species on record: Homo sapiens; test: Binding affinity to FABP (unknown origin)
[4] = Cmax in sc dosed Sprague-Dawley rat; type: ADME, organism-based; settings: in vivo
[5] = Half-life in sc dosed Sprague-Dawley rat; type: ADME, organism-based; settings: in vivo
Sclerostin [6] = molecular target: T1, Sclerostin; test: Binding affinity to SOST loop3 (unknown origin) by SPR analysis

Compound	Kd (Sclerostin [1])	Kd (Sclerostin [2])	other results
O=c1ccc2ccccc2o1 [COUMARIN]	0.273 µM	0.231 µM	–
CC(=O)NCC#Cc1ccc(C(=O)NCC(=O)O)cc1	–	–	AUC [3]: 59.2 ng·h/mL; Activity (Albumin): Not Active; Activity (Homo sapiens): inactive; Cmax [4]: 5.81 ng/mL; half-life [5]: 1.94 h
Nc1nc2c(c(=O)[nH]1)NC(CNc1ccc(C(=O)N[C@@H](CCC(=O)O)C(=O)O)cc1)CN2 (some centres undefined)	0.0377 µM	–	Kd (Sclerostin [6]): 0.0424 µM

Now from value to compound, other results behind:

Kd (Sclerostin [1])	Kd (Sclerostin [2])	Compound	other results
1.58 µM	1.84 µM	Oc1cc(O)c2c(c1)O[C@H](c1ccc(O)c(O)c1)[C@@H](O)C2 [CIANIDANOL]	–
2.63 µM	–	O=C1c2c(O)cc(O)cc2O[C@@H](c2ccc(O)c(O)c2)[C@H]1O [(+)-EPITAXIFOLIN]	–
4.78 µM	3.9 µM	O=C1c2c(O)cc(O)cc2O[C@@H](c2cc(O)c(O)c(O)c2)[C@H]1O	–
